Five molecules from patent US4670542A, “New antibiotics, preparation and use of and intermediates therefor” (Bayer Aktiengesellschaft, priority 1983, dated 1987) can be followed below.

Holding throughout (test): Hole test, inhibiting areola diameter, medium DST agar
Assay type in all cases: cell-based

Test [1] relates to E. coli T 7. Also noted: unit not given here. The text has this:
(§1) Activity against the germs listed below is found in vitro, on the basis of the diameter of the inhibiting areola.

Test [2] deals with E. coli 14.
Description: as §1

For test [3], the system named is Klebs. 57 USA. The following applies: 100 ug/ml.
Description: as §1

For test [4], the system named is Prot. 1017. The following applies: 1000 ug/ml.
Description: as §1

Test [5] has as its system Staph. 133. The following applies: 1000 ug/ml.
Description: as §1

Starred links: 1 amine or outer side, 2 acyl side, 3 side chain; linkers in the order of their positions; H or OH if unused. Non-standard residues stand in square brackets, D forms with d. Residues, ends and D or L forms follow the SMILES beside them. ξ: configuration not given here. X1 = Cn1c(=NC(N)=O)ccn(C2SC(C(O)C(N[*:1])C(=O)[*:2])C(O)C2O)c1=O; Orn(N5-OH,N5-Ac) = CC(=O)N(O)CCC[C@H](N)C(=O)O; ξT = CC(O)C(N)C(=O)O; ξA = CC(N)C(=O)O

Consider `CC(=O)N(O)CCC[C@H](N)C(=O)NC(C(=O)O)C(O)C1SC(n2ccc(=NC(N)=O)n(C)c2=O)C(O)C1O` (some centres unmarked) [Compound 11], for which the “Inhibiting areola diameter E. coli T 7” value in test [1] (10 ug/ml) stood at 13; in test [1] (100 ug/ml), 18. In addition, the “Inhibiting areola diameter E. coli 14” value in test [2] (100 ug/ml) stood at 13. Further, the “Inhibiting areola diameter Klebs. 57 USA” value in test [3] turned out to be 18.

Take `CC(=O)N(O)CCC[C@H](NC(=O)[C@H](CCCN(O)C(C)=O)NC(=O)[C@@H](N)CCCN(O)C(C)=O)C(=O)NC(C(=O)O)C(O)C1SC(n2ccc(=O)n(C)c2=O)C(O)C1O` (some centres unmarked) [Compound 24]: the “Inhibiting areola diameter E. coli T 7” value in test [1] (100 ug/ml) was 18. Also, the “Inhibiting areola diameter E. coli 14” value in test [2] (1000 ug/ml) was 18. For the same molecule, the “Inhibiting areola diameter Prot. 1017” value in test [4] is given as 18.

On to `CC(=O)N(O)CCC[C@H](NC(=O)[C@H](CCCN(O)C(C)=O)NC(=O)[C@@H](N)CCCN(O)C(C)=O)C(=O)NC(C(=O)O)C(O)C1SC(n2ccc(=NC(N)=O)n(C)c2=O)C(O)C1O` (some centres unmarked) [Compound 13], for which the “Inhibiting areola diameter E. coli T 7” value in test [1] (1000 ug/ml) turned out to be 19. The “Inhibiting areola diameter E. coli 14” value in test [2] (1000 ug/ml) came out at 20. Besides, the “Inhibiting areola diameter Prot. 1017” value in test [4] came out at 20.

With `CC(=O)N(O)CCC[C@H](NC(=O)[C@H](CCCN(O)C(C)=O)NC(=O)[C@@H](N)CCCN(O)C(C)=O)C(=O)NC(C)C(=O)NC(C(=O)O)C(O)C1SC(n2ccc(=NC(N)=O)n(C)c2=O)C(O)C1O` (some centres unmarked) [Compound 9, Peptidyl-nucleoside] (H-[Orn(N5-OH,N5-Ac)][Orn(N5-OH,N5-Ac)][Orn(N5-OH,N5-Ac)][ξA][X1]-OH), the “Inhibiting areola diameter E. coli T 7” value was 28 in test [1] (10 ug/ml) and 34 in test [1] (100 ug/ml). The figures for the “Inhibiting areola diameter E. coli 14” value in test [2] (10 ug/ml) and in test [2] (100 ug/ml) were 30 and 34, respectively.

As for `CC(=O)N(O)CCC[C@H](NC(=O)[C@H](CCCN(O)C(C)=O)NC(=O)[C@@H](N)CCCN(O)C(C)=O)C(=O)NC(C(=O)NC(C(=O)O)C(O)C1SC(n2ccc(=NC(N)=O)n(C)c2=O)C(O)C1O)C(C)O` (some centres unmarked) [Compound 20] (H-[Orn(N5-OH,N5-Ac)][Orn(N5-OH,N5-Ac)][Orn(N5-OH,N5-Ac)][ξT][X1]-OH), the “Inhibiting areola diameter E. coli T 7” value was 14 in test [1] (100 ug/ml) and 15 in test [1] (1000 ug/ml). Moreover, the results for the “Inhibiting areola diameter E. coli 14” value in test [2] (100 ug/ml) and in test [2] (1000 ug/ml) were 13 and 14, respectively. For the same molecule, the “Inhibiting areola diameter Staph. 133” value in test [5] stood at 25. For the same molecule, the “Inhibiting areola diameter Prot. 1017” value in test [4] stood at 17.
